Data published in ChEMBL document CHEMBL3112492, “Antiprotozoan lead discovery by aligning dry and wet screening: prediction, synthesis, and biological assay of novel quinoxalinones” (Bioorg Med Chem, 2014).
Values after ≈ are worked out from the molar mass of the structure shown. Active and inactive are the calls of the source. The rule behind the calls is not given here.

How the values were obtained:
Trichomonas vaginalis [1] = assay: Trichomonacidal activity against Trichomonas vaginalis JH31A at 2 ug/ml after 24 hrs by Neubauer chamber analysis relative to control; type: functional
Trichomonas vaginalis [2] = assay: Trichomonacidal activity against Trichomonas vaginalis JH31A at 0.5 ug/ml after 48 hrs by Neubauer chamber analysis relative to control; type: functional
Trichomonas vaginalis [3] = assay: Trichomonacidal activity against Trichomonas vaginalis JH31A at 2 ug/ml after 48 hrs by Neubauer chamber analysis relative to control; type: functional
Trichomonas vaginalis [4] = assay: Trichomonacidal activity against Trichomonas vaginalis JH31A at 1 ug/ml after 48 hrs by Neubauer chamber analysis relative to control; type: functional
Trichomonas vaginalis [5] = assay: Trichomonacidal activity against Trichomonas vaginalis JH31A at 1 ug/ml after 24 hrs by Neubauer chamber analysis relative to control; type: functional
Trichomonas vaginalis [6] = assay: Trichomonacidal activity against Trichomonas vaginalis JH31A at 0.5 ug/ml after 24 hrs by Neubauer chamber analysis relative to control; type: functional
Leishmania braziliensis = assay: Antiprotozoal activity against metacyclic promastigote stage of Leishmania braziliensis MHOM/PE/95/LQ2 assessed as growth inhibition after 72 hrs by Alamar Blue assay; type: functional, organism-based; conditions: for IC50: MHOM/PE/95/LQ2, 72 h
[7] = Inhibition of ferriprotoporphyrin-9 biocrystallization by micro-ELISA
Toxoplasma gondii [8] = assay: Antiprotozoal activity against tachyzoite stage of Toxoplasma gondii RH assessed as viability at 200 uM after 4 hrs by trypan blue exclusion assay relative to control; type: functional
Trichomonas vaginalis [9] = assay: Trichomonacidal activity against Trichomonas vaginalis JH31A at 100 ug/ml after 48 hrs by Neubauer chamber analysis relative to control; type: functional
Trichomonas vaginalis [10] = assay: Trichomonastatic activity against Trichomonas vaginalis JH31A at 1 ug/ml after 24 hrs by Neubauer chamber analysis relative to control; type: functional
Toxoplasma gondii [11] = assay: Antiprotozoal activity against tachyzoite stage of Toxoplasma gondii RH assessed as viability at 100 uM after 4 hrs by trypan blue exclusion assay relative to control; type: functional
Trichomonas vaginalis [12] = assay: Trichomonastatic activity against Trichomonas vaginalis JH31A at 10 ug/ml after 48 hrs by Neubauer chamber analysis relative to control; type: functional
Plasmodium falciparum = assay: Antimalarial activity against intraerythrocytic asexual stage of Plasmodium falciparum 3D7 assessed as inhibition of [G-3H]-hypoxanthine uptake by semiautomated microdilution method; type: functional, organism-based
J774 [13] = assay: Cytotoxicity against mouse J774 cells at 100 ug/mL after 24 hrs by MTT assay; type: cell-based; conditions: j774, 24 h
Trichomonas vaginalis [14] = assay: Trichomonastatic activity against Trichomonas vaginalis JH31A at 1 ug/ml after 48 hrs by Neubauer chamber analysis relative to control; type: functional
Trypanosoma cruzi [15] = assay: Trypanocidal activity against epimastigote stage of Trypanosoma cruzi CL Brener at 10 ug/mL after 72 hrs by beta-galactosidase reporter gene assay relative to control; type: functional
Trypanosoma cruzi [16] = assay: Trypanocidal activity against epimastigote stage of Trypanosoma cruzi CL Brener at 100 ug/mL after 72 hrs by beta-galactosidase reporter gene assay relative to control; type: functional
Trypanosoma cruzi [17] = assay: Trypanocidal activity against epimastigote stage of Trypanosoma cruzi CL Brener at 1 ug/mL after 72 hrs by beta-galactosidase reporter gene assay relative to control; type: functional
Toxoplasma gondii [18] = assay: Antiprotozoal activity against tachyzoite stage of Toxoplasma gondii RH assessed as viability at 500 uM after 4 hrs by trypan blue exclusion assay relative to control; type: functional
Toxoplasma gondii [19] = assay: Antiprotozoal activity against tachyzoite stage of Toxoplasma gondii RH assessed as viability at 1 mM after 4 hrs by trypan blue exclusion assay relative to control; type: functional
Trichomonas vaginalis [20] = assay: Trichomonacidal activity against Trichomonas vaginalis JH31A at 100 ug/ml after 24 hrs by Neubauer chamber analysis relative to control; type: functional
Trichomonas vaginalis [21] = assay: Trichomonacidal activity against Trichomonas vaginalis JH31A at 10 ug/ml after 24 hrs by Neubauer chamber analysis relative to control; type: functional
J774 [22] = assay: Cytotoxicity against mouse J774 cells at 10 ug/mL after 24 hrs by MTT assay; type: cell-based; conditions: j774, 24 h
Acanthamoeba castellanii = assay: Antiprotozoal activity against trophozoite stage of Acanthamoeba castellanii Neff ATCC 30010 after 72 to 120 hrs by Alamar Blue assay; type: functional; conditions: Acanthamoeba castellanii str. Neff
Toxoplasma gondii [23] = assay: Antiprotozoal activity against tachyzoite stage of Toxoplasma gondii RH assessed as extrusion of cytoplasmic content by light microscopic analysis; type: functional, organism-based
Trichomonas vaginalis [24] = assay: Trichomonastatic activity against Trichomonas vaginalis JH31A at 100 ug/ml after 48 hrs by Neubauer chamber analysis relative to control; type: functional
Trichomonas vaginalis [25] = assay: Trichomonastatic activity against Trichomonas vaginalis JH31A at 10 ug/ml after 24 hrs by Neubauer chamber analysis relative to control; type: functional
Trichomonas vaginalis [26] = assay: Trichomonastatic activity against Trichomonas vaginalis JH31A at 100 ug/ml after 24 hrs by Neubauer chamber analysis relative to control; type: functional
J774 [27] = assay: Cytotoxicity against mouse J774 cells at 1 ug/mL after 24 hrs by MTT assay; type: cell-based; conditions: j774, 24 h

SMILES	IC50 [7] [µg/mL]	IC50 (Plasmodium falciparum) [µg/mL]	growth inhibition (GI) (Leishmania braziliensis)	IC50 (Leishmania braziliensis) [µg/mL]	Activity (Toxoplasma gondii [8]) [%]	Activity (Trichomonas vaginalis [9]) [%]	Activity (Trichomonas vaginalis [10]) [%]	Activity (Toxoplasma gondii [11]) [%]	Activity (Trichomonas vaginalis [12]) [%]	Activity (J774 [13]) [%]	Activity (Trichomonas vaginalis [14]) [%]	Activity (Trypanosoma cruzi [15]) [%]	Activity (Trypanosoma cruzi [16]) [%]	Activity (Trypanosoma cruzi [17]) [%]	Activity (Toxoplasma gondii [18]) [%]	Activity (Toxoplasma gondii [19]) [%]	Activity (Trichomonas vaginalis [20]) [%]	Activity (J774 [22]) [%]	Activity (Acanthamoeba castellanii)	Activity (Trichomonas vaginalis [25]) [%]	other results
Cc1ncc([N+](=O)[O-])n1CCO [METRONIDAZOLE]	–	–	–	–	–	–	–	–	–	–	–	–	–	–	–	–	–	–	–	–	Activity (Trichomonas vaginalis [1]): 100%; Activity (Trichomonas vaginalis [2]): 99.5%; Activity (Trichomonas vaginalis [3]): 100%; Activity (Trichomonas vaginalis [4]): 100%; Activity (Trichomonas vaginalis [5]): 99.1%; Activity (Trichomonas vaginalis [6]): 98%
Br.CN1C(=O)CN(CCCCCN2CCc3ccccc3C2)c2ccc([N+](=O)[O-])cc21	950	6.47	inactive	–	–	100	4.71	–	23.28	99.44	4.1	15.62	19.78	11.77	–	–	100	24.44	inactive	70.98	–
Br.CN(C)CCCCCN1CC(=O)N(C)c2cc([N+](=O)[O-])ccc21	> 2000	> 10	Dose-dependent effect	8.15	90	100	8.98	81	11.26	–	0	–	–	–	93	81	100	–	inactive	45.71	–
CCN(CC)CCCC(C)Nc1ccnc2cc(Cl)ccc12 (stereo unspecified) [CHLOROQUINE]	40 (≈ 125 µM)	–	–	–	–	–	–	–	–	–	–	–	–	–	–	–	–	–	–	–	–
Br.O=C1CN(CCCCCN2CCc3ccccc3C2)c2ccc([N+](=O)[O-])cc2N1	1530	> 10	Dose-dependent effect	31.3	–	100	3.53	–	44.06	100	0	56.77	87.83	12.49	–	–	100	13.25	inactive	83.76	Activity (J774 [27]): 9.89%
CC1CS(=O)(=O)CCN1/N=C/c1ccc([N+](=O)[O-])o1 (stereo unspecified) [NIFURTIMOX]	–	–	–	–	–	–	–	–	–	25.9	–	90	98.73	75.5	–	–	–	0.6	–	–	Activity (J774 [27]): 0%

Continued, in another order:

IC50 [7] [µg/mL]	IC50 (Plasmodium falciparum) [µg/mL]	SMILES	growth inhibition (GI) (Leishmania braziliensis)	IC50 (Leishmania braziliensis) [µg/mL]	Activity (Toxoplasma gondii [8]) [%]	Activity (Trichomonas vaginalis [9]) [%]	Activity (Trichomonas vaginalis [10]) [%]	Activity (Toxoplasma gondii [11]) [%]	Activity (Trichomonas vaginalis [12]) [%]	Activity (J774 [13]) [%]	Activity (Trichomonas vaginalis [14]) [%]	Activity (Trypanosoma cruzi [15]) [%]	Activity (Trypanosoma cruzi [16]) [%]	Activity (Trypanosoma cruzi [17]) [%]	Activity (Toxoplasma gondii [18]) [%]	Activity (Toxoplasma gondii [19]) [%]	Activity (Trichomonas vaginalis [20]) [%]	Activity (J774 [22]) [%]	Activity (Acanthamoeba castellanii)	Activity (Trichomonas vaginalis [25]) [%]	other results
> 2000	> 10	Br.CN1C(=O)CN(CCCCCN2CCCCC2)c2ccc([N+](=O)[O-])cc21	Dose-dependent effect	9.57	90	100	0	96	86.52	61.38	0	60.68	79.12	7.93	40	36	100	11.57	inactive	–	Activity (Trichomonas vaginalis [21]): 92.63%
1950	> 10	Br.CN1C(=O)CN(CCCCCN2CCCCCC2)c2ccc([N+](=O)[O-])cc21	Dose-dependent effect	5.3	77	100	10.98	81	70.41	75.75	2.87	15.38	65.46	0	71	0	100	20.24	inactive	–	Activity (Toxoplasma gondii [23]): Active; Activity (Trichomonas vaginalis [21]): 91.61%
> 2000	> 10	Br.CN(C)CCCCCN1CC(=O)Nc2cc([N+](=O)[O-])ccc21	inactive	–	96	–	1.22	95	14.68	–	0	–	–	–	93	73	–	–	inactive	11.43	Activity (Trichomonas vaginalis [24]): 28.33%; Activity (Trichomonas vaginalis [26]): 29.39%
> 2000	> 10	Br.CN1C(=O)CN(CCCCCN2CCCC2)c2ccc([N+](=O)[O-])cc21	Dose-dependent effect	5.3	84	100	0	89	67.7	49.25	4.1	2.51	6.36	0	58	38	100	0	inactive	–	Activity (J774 [27]): 0%; Activity (Trichomonas vaginalis [21]): 89.25%
> 2000	> 10	Br.O=C1CN(CCCCCN2CCCCC2)c2ccc([N+](=O)[O-])cc2N1	Dose-dependent effect	64.6	68	100	0	92	5.74	3.36	0	17.68	82.4	1.78	0	0	99.37	0	inactive	20.94	Activity (Toxoplasma gondii [23]): Active; Activity (J774 [27]): 0%
> 2000	5.72	Br.O=C1CN(CCCCCN2CCCCCC2)c2ccc([N+](=O)[O-])cc2N1	Dose-dependent effect	39.3	82	100	2.35	88	0	59.14	0	23.84	97.73	8.35	0	0	100	5.78	inactive	12.94	Activity (Toxoplasma gondii [23]): Active; Activity (J774 [27]): 0%
> 2000	> 10	Br.O=C1CN(CCCCCN2CCCC2)c2ccc([N+](=O)[O-])cc2N1	inactive	–	85	–	3.53	91	1.64	0	0	5.35	83.54	4.38	0	0	–	0	inactive	21.02	Activity (Toxoplasma gondii [23]): Active; Activity (J774 [27]): 0%; Activity (Trichomonas vaginalis [24]): 34.26%; Activity (Trichomonas vaginalis [26]): 75.61%
